From patent publication US12246091B2, “Method of encapsulating active ingredients in liposomes” (ABNOBA GMBH, priority 2018, dated 2025)

Assay: Solubility of the amphiphilic compound in the first liquid perfluoroperhydrophenanthrene (C14F24)
Details: for solubility: perfluoroperhydrophenanthrene (C14F24), organic solvent or mixture

Row | Compound | solubility [µM] | Solubility in C14F24 (in perfluoroperhydrophenanthrene (C14F24, CAS 306-91-2), bound is the detection limit)
1 | CC(C)CCC[C@@H](C)[C@H]1CC[C@H]2[C@@H]3CC=C4C[C@@H](O)CC[C@]4(C)[C@H]3CC[C@]12C [cholesterol] | < 10 | –
2 | CCCCCCCCCCCCCCCCCC(=O)OC[C@H](COP(=O)([O-])OCC[N+](C)(C)C)OC(=O)CCCCCCCCCCCCCCCCC [DSPC, distearoylphosphatidylcholine] | – | < 10^−5 mol/l
3 | CCCCCCCCCCCCCCCC(=O)OC[C@H](COP(=O)([O-])OCC[N+](C)(C)C)OC(=O)CCCCCCCCCCCCCCC [DPPC, dipalmitoylphosphatidylcholine] | < 10 | –
